Assay results from patent US8048879B2, “Substituted 4,5,6,7-tetrahydro-isoxazolo[4,5-c]pyridine compounds and use thereof for producing medicaments” (Gruenenthal GmbH, priority 2005, dated 2011).

Test system: batrachotoxin (BTX) binding site of the sodium channel
Assay: Affinity for the batrachotoxin (BTX) binding site of the sodium channel, [3H]-batrachotoxinin A20 α-benzoate, rat cerebrocortex synaptosomes
Conditions: test concentration not given

Row | Structure (SMILES) | BTX inhibition (rat) % inhibition
1 | O=C(c1noc2c1CN(S(=O)(=O)c1ccc(F)cc1)CC2)N1CCN(c2ncnc3sccc23)CC1 [Example 34] | 42%
2 | O=C(c1noc2c1CN(S(=O)(=O)c1ccc3ccccc3c1)CC2)N1CCC(CCN2CCCC2)CC1 [Example 148, (5-(naphthalen-2-ylsulfonyl)-4,5,6,7-tetrahydroisoxazolo[4,5-c]pyridin-3-yl)(4-(2-(pyrrolidin-1-yl)ethyl)piperidin-1-yl)methanone] | 74%
3 | O=C(NCCN1CCCC1)c1noc2c1CN(C(=O)COc1cccc(Cl)c1)CC2 [Example 94, 5-[2-(3-chlorophenoxy)-acetyl]-4,5,6,7-tetrahydro-isoxazolo[4,5-c]pyridine-3-carboxylic acid (2-pyrrolidin-1-yl-ethyl) amide] | 60%
4 | O=C(c1noc2c1CN(S(=O)(=O)c1cccc(C(F)(F)F)c1)CC2)N(CCc1ccccc1)Cc1ccccc1 [Example 68, 5-(3-trifluoromethyl-benzenesulfonyl)-4,5,6,7-tetrahydro-isoxazolo[4,5-c]pyridine-3-carboxylic acid benzyl-phenethyl amide] | 51%
5 | Cc1ccc(NC(=O)c2noc3c2CN(S(=O)(=O)c2ccc(C)cc2)CC3)cc1 [Example 152, N-p-tolyl-5-tosyl-4,5,6,7-tetrahydroisoxazolo[4,5-c]pyridine-3-carboxamide] | 29%
6 | Cc1ccc(S(=O)(=O)N2CCc3onc(C(=O)NCc4ccc(S(N)(=O)=O)cc4)c3C2)cc1 [Example 157, N-(4-sulfamoylbenzyl)-5-tosyl-4,5,6,7-tetrahydroisoxazolo[4,5-c]pyridine-3-carboxamide] | 17%
7 | O=C(NC1CCCC1)c1noc2c1CN(C(=O)COc1ccc(Cl)cc1)CC2 [Example 81, 5-[2-(4-chlorophenoxy)-acetyl]-4,5,6,7-tetrahydro-isoxazolo[4,5-c]pyridine-3-carboxylic acid cyclopentyl amide] | 65%
8 | COc1ccc(OCCNC(=O)c2noc3c2CN(S(=O)(=O)c2ccc(C)cc2)CC3)cc1 [Example 109, 5-(toluene-4-sulfonyl)-4,5,6,7-tetrahydro-isoxazolo[4,5-c]pyridine-3-carboxylic acid [2-(4-methoxy-phenoxy)-ethyl] amide] | 56%
9 | C=CCOc1ccc(CN(Cc2ccco2)C(=O)c2noc3c2CN(S(=O)(=O)c2cccc(C(F)(F)F)c2)CC3)cc1 [Example 87, 5-(3-trifluoromethyl-benzenesulfonyl)-4,5,6,7-tetrahydro-isoxazolo[4,5-c]pyridine-3-carboxylic acid (4-allyloxy-benzyl)-furan-2-ylmethyl amide] | 41%
10 | O=C(c1noc2c1CN(S(=O)(=O)c1ccc3ccccc3c1)CC2)N1CCN(c2nccs2)CC1 [Example 143, (5-(naphthalen-2-ylsulfonyl)-4,5,6,7-tetrahydroisoxazolo[4,5-c]pyridin-3-yl)(4-(thiazol-2-yl)piperazin-1-yl)methanone] | 48%
11 | CCOc1ccc(NC(=O)N2CCc3onc(C(=O)NCc4ccc(F)cc4)c3C2)cc1 [Example 21, 6,7-dihydro-4H-isoxazolo[4,5-c]pyridine-3,5-dicarboxylic acid 5-[(4-ethoxy-phenyl) amide] 3-(4-fluorobenzyl amide)] | 68%
12 | N#Cc1cccc(NC(=O)N2CCc3onc(C(=O)NCc4cccs4)c3C2)c1 [Example 12, 6,7-dihydro-4H-isoxazolo[4,5-c]pyridine-3,5-dicarboxylic acid 5-[(3-cyano-phenyl) amide]3-[(thiophen-2-ylmethyl) amide]] | 47%
13 | CCCCOc1ccc(S(=O)(=O)N2CCc3onc(C(=O)NCC(C)C)c3C2)cc1 [Example 114, 5-(4-butoxy-benzenesulfonyl)-4,5,6,7-tetrahydro-isoxazolo[4,5-c]pyridine-3-carboxylic acid isobutyl amide] | 58%
14 | O=C(NCC1CC1)c1noc2c1CN(C(=S)NCc1ccc(Cl)cc1)CC2 [Example 129, 5-(4-chloro-benzylthiocarbamoyl)-4,5,6,7-tetrahydro-isoxazolo[4,5-c]pyridine-3-carboxylic acid cyclopropylmethyl amide] | 53%
15 | O=C(NCCN1CCCC1)c1noc2c1CN(S(=O)(=O)c1cccc(Cl)c1)CC2 [Example 118, 5-(3-chloro-benzenesulfonyl)-4,5,6,7-tetrahydro-isoxazolo[4,5-c]pyridine-3-carboxylic acid (2-pyrrolidin-1-yl-ethyl) amide] | 76%
16 | COc1ccc(NC(=O)N2CCc3onc(C(=O)NCc4ccccc4)c3C2)cc1 [Example 151, N^3-benzyl-N^5-(4-methoxyphenyl)-6,7-dihydroisoxazolo[4,5-c]pyridine-3,5(4H)-dicarboxamide] | 36%

Row | Structure (SMILES) | BTX inhibition (rat) % inhibition
17 | CCOc1ccc(NC(=O)N2CCc3onc(C(=O)Nc4ccccc4)c3C2)cc1 [Example 13, 6,7-dihydro-4H-isoxazolo[4,5-c]pyridine-3,5-dicarboxylic acid 5-[(4-ethoxy-phenyl) amide] 3-phenyl amide] | 58%
18 | O=C(c1noc2c1CN(S(=O)(=O)c1ccccc1)CC2)N1CCN(CC=Cc2ccccc2)CC1 [Example 97, (5-benzenesulfonyl-4,5,6,7-tetrahydro-isoxazolo[4,5-c]pyridin-3-yl)-[4-(3-phenyl-allyl)-piperazin-1-yl]-methanone] | 70%
19 | O=C(NC1CCN(Cc2ccc(C(F)(F)F)cc2)C1)c1noc2c1CN(S(=O)(=O)c1ccccc1)CC2 (centres unmarked) [Example 103, 5-benzenesulfonyl-4,5,6,7-tetrahydro-isoxazolo[4,5-c]pyridine-3-carboxylic acid [1-(4-trifluoromethyl-benzyl)-pyrrolidin-3-yl] amide] | 92%
20 | O=C(c1noc2c1CN(S(=O)(=O)c1ccc(OC(F)(F)F)cc1)CC2)N(CCc1ccccc1)Cc1ccccc1 [Example 32, 5-(4-trifluoromethoxy-benzenesulfonyl)-4,5,6,7-tetrahydro-isoxazolo[4,5-c]pyridine-3-carboxylic acid benzyl-phenethyl amide] | 59%
21 | CC(NC(=O)N1CCc2onc(C(=O)NCCc3ccccc3)c2C1)c1cccc2ccccc12 (centres unmarked) [Example 18, 6,7-dihydro-4H-isoxazolo[4,5-c]pyridine-3,5-dicarboxylic acid 5-[(1-naphthalen-1-yl-ethyl) amide]3-(phenethyl amide)] | 75%
22 | O=C(NCCN1CCOCC1)c1noc2c1CN(S(=O)(=O)c1cc(Cl)c(Cl)s1)CC2 [Example 63, 5-(4,5-dichloro-thiophene-2-sulfonyl)-4,5,6,7-tetrahydro-isoxazolo[4,5-c]pyridine-3-carboxylic acid (2-morpholin-4-yl-ethyl) amide] | 55%
23 | CCOC(=O)CCNC(=O)c1noc2c1CN(C(=S)NCC1CCCCC1)CC2 [Example 134, 3-{[5-(cyclohexylmethyl-thiocarbamoyl)-4,5,6,7-tetrahydro-isoxazolo[4,5-c]pyridine-3-carbonyl]-amino}-propionic acid ethyl ester] | 55%
24 | O=C(NC1CCCC1)c1noc2c1CN(C(=O)NCc1ccc(F)cc1)CC2 [Example 2, 6,7-dihydro-4H-isoxazolo[4,5-c]pyridine-3,5-dicarboxylic acid 3-cyclopentyl amide 5-(4-fluorobenzyl amide)] | 83%
25 | O=C(NCCc1ccccc1)c1noc2c1CN(C(=S)Nc1c(F)c(F)c(F)c(F)c1F)CC2 [Example 131, 5-pentafluorophenylthiocarbamoyl-4,5,6,7-tetrahydro-isoxazolo[4,5-c]pyridine-3-carboxylic acid phenethyl amide] | 58%
26 | Cc1cc(C)c(S(=O)(=O)N2CCc3onc(C(=O)N4CCN(c5nccs5)CC4)c3C2)c(C)c1 [Example 141, (5-(mesitylsulfonyl)-4,5,6,7-tetrahydroisoxazolo[4,5-c]pyridin-3-yl)(4-(thiazol-2-yl)piperazin-1-yl)methanone] | 67%
27 | COCCNC(=S)N1CCc2onc(C(=O)NCCc3ccccc3)c2C1 [Example 130, 5-(2-methoxy-ethylthiocarbamoyl)-4,5,6,7-tetrahydro-isoxazolo[4,5-c]pyridine-3-carboxylic acid phenethyl amide] | 68%
28 | O=C(NC1CCN(Cc2ccc3ccccc3c2)C1)c1noc2c1CN(S(=O)(=O)c1ccccc1)CC2 (centres unmarked) [Example 33, 5-benzenesulfonyl-4,5,6,7-tetrahydro-isoxazolo[4,5-c]pyridine-3-carboxylic acid (1-naphthalen-2-ylmethyl-pyrrolidin-3-yl) amide] | 93%
29 | O=C(NC1CCCC1OCc1ccccc1)c1noc2c1CN(S(=O)(=O)c1cc(Cl)ccc1Cl)CC2 (centres unmarked) [Example 40, 5-(2,5-dichloro-benzenesulfonyl)-4,5,6,7-tetrahydro-isoxazolo[4,5-c]pyridine-3-carboxylic acid (2-benzyloxy-cyclopentyl) amide] | 65%
30 | Cc1ccc(NC(=O)N2CCc3onc(C(=O)NCc4cccs4)c3C2)cc1[N+](=O)[O-] [Example 9, 6,7-dihydro-4H-isoxazolo[4,5-c]pyridine-3,5-dicarboxylic acid 5-[(4-methyl-3-nitro-phenyl) amide] 3-[(thiophen-2-ylmethyl) amide]] | 43%
31 | O=C(Nc1ccccc1)c1noc2c1CN(C(=O)c1ccccc1F)CC2 [Example 156, 5-(2-fluorobenzoyl)-N-phenyl-4,5,6,7-tetrahydroisoxazolo[4,5-c]pyridine-3-carboxamide] | 26%
32 | O=C(c1noc2c1CN(S(=O)(=O)c1ccc(Cl)c(Cl)c1)CC2)N1CCN(c2nccs2)CC1 [Example 140, (5-(3,4-dichlorophenylsulfonyl)-4,5,6,7-tetrahydroisoxazolo[4,5-c]pyridin-3-yl)(4-(thiazol-2-yl)piperazin-1-yl)methanone] | 55%
